Several values for one entry are separate records, joined by “and”; a condition that tells them apart may be missing. Equal values may be shown once.
Test system: HEK293 cells
Assay: Endogenous ceramide, HexCer and SM levels in cells treated 24 h, targeted LC-MS/MS
Format: cell-based
Parameters: Cer 18:1/24:0 content in HEK293 cells / Cer 18:1/24:1 content in HEK293 cells / HexCer 18:1/16:0 content in HEK293 cells / HexCer 18:1/18:0 content in HEK293 cells / HexCer 18:1/20:0 content in HEK293 cells / HexCer 18:1/22:0 content in HEK293 cells / Cer 18:1/16:0 content in HEK293 cells / Cer 18:1/18:0 content in HEK293 cells / Cer 18:1/20:0 content in HEK293 cells / Cer 18:1/22:0 content in HEK293 cells: unit not given here
Settings: replicates, raw data Suppl Fig 1
Protocol: Lipids were then extracted using MTBE/methanol/water as described above.
HEK293 cell culture experiment: Levels of each lipid in P053-treated HEK293 cells were normalised to the mean of the vehicle control group, and each concentration was compared to the control using ANOVA with Dunnett’s post-test. P values were adjusted for multiple comparisons in GraphPad PRISM.
Supplementary Figure 1. Ceramide, SM, and HexCer levels in HEK293 cells treated with
P053. Absolute lipid levels were determined by targeted LC-MS/MS, relative to external
standard curves. Results are mean ± SEM (n = 4) from one of two identical experiments.
Statistically significant results, based on two independent experiments, are as indicated in
Figure 2b-d. Raw data for these figures is provided in Supplementary Data File 1.

SMILES: C[C@@](N)(CO)CCc1ccc(OCc2ccc(Cl)c(Cl)c2)cc1 [P053, (S)-2-amino-4-(4-(3,4-dichlorobenzyloxy)phenyl)-2-methylbutan-1-ol]
- Cer 18:1/24:0 content in HEK293 cells (P053 10 nM): 78.2507 and 97.4893 and 100.975 and 120.086
- Cer 18:1/24:1 content in HEK293 cells (P053 10 nM): 41.2869 and 36.9476 and 41.283 and 38.2211
- HexCer 18:1/16:0 content in HEK293 cells (P053 10 nM): 30.7043 and 33.6425 and 33.4465 and 30.9255
- HexCer 18:1/18:0 content in HEK293 cells (P053 10 nM): 4.5494 and 4.09 and 4.473 and 4.32
- HexCer 18:1/20:0 content in HEK293 cells (P053 10 nM): 0.3088 and 0.3692 and 0.4154 and 0.4356
- HexCer 18:1/22:0 content in HEK293 cells (P053 10 nM): 36.8189 and 34.9551 and 38.6561 and 38.9837
- HexCer 18:1/24:0 content in HEK293 cells (P053 10 nM): 199.303 and 216.657 and 249.013 and 199.834
- HexCer 18:1/24:1 content in HEK293 cells (P053 10 nM): 70.2405 and 72.3688 and 73.5755 and 68.734
- SM 32:1 content in HEK293 cells (P053 10 nM): 35.2485 and 30.6751 and 30.1932 and 30.0675
- SM 34:1 content in HEK293 cells (P053 10 nM): 296.401 and 243.663 and 224.502 and 225.737
- SM 34:2 content in HEK293 cells (P053 10 nM): 47.2234 and 40.324 and 36.1571 and 38.6716
- SM 36:1 content in HEK293 cells (P053 10 nM): 29.6301 and 20.7933 and 22.4748 and 21.0053
- SM 36:2 content in HEK293 cells (P053 10 nM): 11.2341 and 9.942 and 8.241 and 8.207
- SM 38:1 content in HEK293 cells (P053 10 nM): 6.182 and 8.401 and 6.6333 and 8.787
- SM 40:1 content in HEK293 cells (P053 10 nM): 40.0944 and 41.0366 and 34.4775 and 35.2843
- SM 40:2 content in HEK293 cells (P053 10 nM): 10.3276 and 10.9643 and 10.3385 and 8.643
- SM 42:1 content in HEK293 cells (P053 10 nM): 68.7535 and 68.4711 and 69.6713 and 77.5442
- SM 42:2 content in HEK293 cells (P053 10 nM): 119.092 and 115.121 and 104.672 and 105.467
- Cer 18:1/16:0 content in HEK293 cells (P053 30 nM): 19.0547 and 20.8444 and 18.7423 and 20.5749
- Cer 18:1/18:0 content in HEK293 cells (P053 30 nM): 5.081 and 5.075 and 4.316 and 4.99
- Cer 18:1/20:0 content in HEK293 cells (P053 30 nM): 0.7183 and 0.7479 and 0.6521 and 0.6855
- Cer 18:1/22:0 content in HEK293 cells (P053 30 nM): 57.3121 and 66.2959 and 65.6669 and 64.5364
- Cer 18:1/24:0 content in HEK293 cells (P053 30 nM): 85.8777 and 134.225 and 118.415 and 97.9167
- Cer 18:1/24:1 content in HEK293 cells (P053 30 nM): 37.3744 and 44.4522 and 42.1609 and 41.0899
- HexCer 18:1/16:0 content in HEK293 cells (P053 30 nM): 29.7152 and 31.7982 and 33.8438 and 30.9723
- HexCer 18:1/18:0 content in HEK293 cells (P053 30 nM): 3.0394 and 3.951 and 4.099 and 3.127
- HexCer 18:1/20:0 content in HEK293 cells (P053 30 nM): 0.3329 and 0.4128 and 0.4628 and 0.5232
- HexCer 18:1/22:0 content in HEK293 cells (P053 30 nM): 32.4873 and 39.9972 and 37.7095 and 34.9843
- HexCer 18:1/24:0 content in HEK293 cells (P053 30 nM): 190.472 and 249.822 and 223.238 and 200.878
- HexCer 18:1/24:1 content in HEK293 cells (P053 30 nM): 66.6616 and 76.2502 and 69.0398 and 65.5993
- SM 32:1 content in HEK293 cells (P053 30 nM): 30.2036 and 32.0092 and 28.7617 and 34.5111
- SM 34:1 content in HEK293 cells (P053 30 nM): 248.003 and 262.537 and 249.572 and 281.872
- SM 34:2 content in HEK293 cells (P053 30 nM): 41.231 and 41.1196 and 40.1333 and 43.2759
- SM 36:1 content in HEK293 cells (P053 30 nM): 22.0304 and 22.5253 and 18.9401 and 24.6728
- SM 36:2 content in HEK293 cells (P053 30 nM): 9.089 and 8.502 and 8.127 and 10.0466
- SM 38:1 content in HEK293 cells (P053 30 nM): 14.9847 and 8.56 and 5.18 and 11.7454
- SM 40:1 content in HEK293 cells (P053 30 nM): 39.8982 and 44.3327 and 34.2754 and 42.2123
- SM 40:2 content in HEK293 cells (P053 30 nM): 9.856 and 9.764 and 9.362 and 10.5652
- SM 42:1 content in HEK293 cells (P053 30 nM): 69.7563 and 80.9547 and 78.46 and 71.8434
- SM 42:2 content in HEK293 cells (P053 30 nM): 104.731 and 121.981 and 114.303 and 118.688
- Cer 18:1/16:0 content in HEK293 cells (P053 100 nM): 22.9494 and 19.2357 and 22.5073 and 19.0496
- Cer 18:1/18:0 content in HEK293 cells (P053 100 nM): 2.972 and 3.68 and 3.21 and 2.092
- Cer 18:1/20:0 content in HEK293 cells (P053 100 nM): 0.613 and 0.738 and 0.687 and 0.5601
- Cer 18:1/22:0 content in HEK293 cells (P053 100 nM): 66.0373 and 65.445 and 75.6523 and 61.1907
- Cer 18:1/24:0 content in HEK293 cells (P053 100 nM): 95.8984 and 114.847 and 144.796 and 106.353
- Cer 18:1/24:1 content in HEK293 cells (P053 100 nM): 43.7952 and 41.4019 and 48.5214 and 41.0347
- HexCer 18:1/16:0 content in HEK293 cells (P053 100 nM): 28.7244 and 29.2314 and 27.3495 and 32.1782
- HexCer 18:1/18:0 content in HEK293 cells (P053 100 nM): 1.552 and 2.033 and 2.382 and 2.572
- HexCer 18:1/20:0 content in HEK293 cells (P053 100 nM): 0.3018 and 0.2953 and 0.2763 and 0.1537
- HexCer 18:1/22:0 content in HEK293 cells (P053 100 nM): 35.0199 and 40.376 and 33.9893 and 41.9484
- HexCer 18:1/24:0 content in HEK293 cells (P053 100 nM): 193.278 and 206.781 and 205.001 and 225.138
- HexCer 18:1/24:1 content in HEK293 cells (P053 100 nM): 66.6213 and 67.2246 and 64.4273 and 72.2662
- SM 32:1 content in HEK293 cells (P053 100 nM): 33.5311 and 33.1495 and 31.0137 and 33.9978
- SM 34:1 content in HEK293 cells (P053 100 nM): 239.205 and 244.554 and 241.828 and 261.421
- SM 34:2 content in HEK293 cells (P053 100 nM): 40.9604 and 43.1506 and 39.5005 and 44.6858
- SM 36:1 content in HEK293 cells (P053 100 nM): 15.6181 and 17.1499 and 17.2078 and 18.9256
- SM 36:2 content in HEK293 cells (P053 100 nM): 6.971 and 7.206 and 7.1332 and 7.405
- SM 38:1 content in HEK293 cells (P053 100 nM): 4.352 and 7.605 and 11.0645 and 10.3031
- SM 40:1 content in HEK293 cells (P053 100 nM): 39.6185 and 38.4983 and 41.6326 and 45.0957
- SM 40:2 content in HEK293 cells (P053 100 nM): 10.6428 and 11.1113 and 10.5382 and 10.6417
- SM 42:1 content in HEK293 cells (P053 100 nM): 70.6629 and 69.6062 and 82.0245 and 85.9318
- SM 42:2 content in HEK293 cells (P053 100 nM): 112.606 and 107.685 and 114.026 and 114.211
- Cer 18:1/16:0 content in HEK293 cells (P053 300 nM): 17.822 and 19.0766 and 17.3933
- Cer 18:1/18:0 content in HEK293 cells (P053 300 nM): 1.8912 and 1.699 and 1.376
- Cer 18:1/20:0 content in HEK293 cells (P053 300 nM): 0.7162 and 0.4601 and 0.6576
- Cer 18:1/22:0 content in HEK293 cells (P053 300 nM): 64.624 and 69.7847 and 70.6121
- Cer 18:1/24:0 content in HEK293 cells (P053 300 nM): 94.7176 and 106.124 and 124.497
- Cer 18:1/24:1 content in HEK293 cells (P053 300 nM): 42.6517 and 39.4375 and 41.6471
- HexCer 18:1/16:0 content in HEK293 cells (P053 300 nM): 26.9367 and 27.3197 and 28.9409
- HexCer 18:1/18:0 content in HEK293 cells (P053 300 nM): 1.661 and 1.355 and 1.491
- HexCer 18:1/20:0 content in HEK293 cells (P053 300 nM): 0.2792 and 0.518 and 0.2446
- HexCer 18:1/22:0 content in HEK293 cells (P053 300 nM): 43.5691 and 40.2015 and 45.0568
- HexCer 18:1/24:0 content in HEK293 cells (P053 300 nM): 220.79 and 197.985 and 254.871
- HexCer 18:1/24:1 content in HEK293 cells (P053 300 nM): 63.1626 and 68.7371 and 74.9033
- SM 32:1 content in HEK293 cells (P053 300 nM): 31.4532 and 33.3582 and 37.098
- SM 34:1 content in HEK293 cells (P053 300 nM): 241.436 and 241.197 and 248.392
- SM 34:2 content in HEK293 cells (P053 300 nM): 42.0268 and 43.5268 and 45.2968
- SM 36:1 content in HEK293 cells (P053 300 nM): 14.7086 and 14.6722 and 17.3205
- SM 36:2 content in HEK293 cells (P053 300 nM): 6.184 and 6.8179 and 6.541
- SM 38:1 content in HEK293 cells (P053 300 nM): 9.78 and 11.6533 and 8.0822
- SM 40:1 content in HEK293 cells (P053 300 nM): 43.4372 and 43.0067 and 50.439
- SM 40:2 content in HEK293 cells (P053 300 nM): 12.0217 and 11.0813 and 11.4772
- SM 42:1 content in HEK293 cells (P053 300 nM): 70.0557 and 70.3641 and 94.669
- SM 42:2 content in HEK293 cells (P053 300 nM): 117.582 and 110.303 and 130.267

— publication PMC6104039 (Nature Communications, 2018)
